Measurements reported in PubChem BioAssay (NCI).
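Test compounds were applied to cells in 96-well plates for 48 hours at 5 doses. TGI marks complete inhibition of growth.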

Tests used:
Assay in all cases: NCI anticancer screen, dose series, 48 h
[1] = system: SK-OV-3 ovarian
[2] = system: SNB-75 CNS
[3] = system: OVCAR-4 ovarian
[4] = system: OVCAR-3 ovarian
[5] = system: PC-3 prostate
[6] = system: UACC-257 melanoma
[7] = system: RXF 393 renal
[8] = system: HT29 colon
[9] = system: UACC-62 melanoma
[10] = system: NCI-H460 lung
[11] = system: HOP-62 NSCLC
[12] = system: MOLT-4 leukemia
[13] = system: SF-295 CNS
[14] = system: ACHN renal
[15] = system: KM12 colon
[16] = system: MALME-3M melanoma
[17] = system: A549 NSCLC
[18] = system: NCI-H522 lung

| SMILES | TGI [1] [µM] | TGI [2] [µM] | TGI [3] [µM] | TGI [4] [µM] | TGI [5] [µM] | TGI [6] [µM] | TGI [7] [µM] | TGI [8] [µM] | TGI [9] [µM] | TGI [10] [µM] | TGI [11] [µM] | TGI [12] [µM] | TGI [13] [µM] | TGI [14] [µM] | TGI [15] [µM] | TGI [16] [µM] | TGI [17] [µM] | TGI [18] [µM] |
| --- | --- | --- | --- | --- | --- | --- | --- | --- | --- | --- | --- | --- | --- | --- | --- | --- | --- | --- |
| COC(=O)C1=C(OC(=O)/C(=C/c2ccccc2)c2ccc(Cl)cc2)C(C(=O)OC)[C@@]2(O)[C@@H](C(=O)OC)[C@H](C)C[C@@H]1[C@@H]2C(=O)OC (stereo not given in full) | > 100 | > 100 | > 100 | > 100 | > 100 | > 100 | > 100 | > 100 | > 100 | > 100 | > 100 | > 100 | > 100 | > 100 | > 100 | > 100 | > 100 | > 100 |
| COC(=O)C(C)(C)[C@@H]1OC(=O)N(S(=O)(=O)c2c(C)cc(C)cc2C)[C@H]1C(C)C | > 100 | > 100 | > 100 | > 100 | > 100 | > 100 | > 100 | > 100 | > 100 | > 100 | > 100 | > 100 | > 100 | > 100 | > 100 | > 100 | > 100 | > 100 |
| Cc1occc1C(=S)Nc1ccc(Cl)c(/C=N/OC(C)(C)C)c1 | 58.7 | 56.7 | 45 | 31.3 | 33 | 31.7 | 31.1 | 28.5 | 28 | 29.7 | 45.9 | 31.8 | 28.5 | 30.6 | 32.3 | > 56.5 | 38.6 | 24.8 |
| Cc1ccc([N+](=O)[O-])cc1S(=O)(=O)Nc1ccc(C2=NOC(c3cccs3)C2)cc1 (stereo not given) | 52.2 | 61.8 | 32.3 | 19.7 | > 100 | 49.6 | 22.4 | 40.2 | 17.8 | 28.8 | 29.1 | 22.3 | 44.1 | 46.3 | 29.1 | > 100 | 67.2 | 21.2 |
| C[C@]12CC[C@H]3[C@@H](CC=C4C[C@@H](O)CC[C@@]43C)[C@@H]1C/C(=C/c1ccccc1)[C@@H]2O | > 66.7 | > 68.5 | > 73.2 | 43.3 | > 57.2 | 45.4 | > 57 | > 79.3 | 56.5 | > 100 | 54.8 | > 100 | > 65.9 | > 61.4 | > 78.8 | 79.4 | > 51.5 | > 100 |
| COC(=O)C1=C(OC(=O)c2ccccc2)C(C(=O)OC)[C@@]2(O)[C@@H](C(=O)OC)[C@H](C)C[C@@H]1[C@@H]2C(=O)OC (stereo not given in full) | > 100 | > 100 | > 100 | > 100 | > 100 | > 100 | 42.9 | > 100 | > 100 | > 100 | > 100 | > 100 | > 100 | > 100 | > 100 | > 100 | 71.6 | 33 |
| CCOC(=O)C1(C(=O)OCC)C[C@@H](C)[C@@H](O)C1 | > 100 | > 100 | > 100 | > 100 | > 100 | > 100 | > 100 | > 100 | > 100 | > 100 | > 100 | > 100 | > 100 | > 100 | > 100 | > 100 | > 100 | > 100 |
| C/C=C1\CC2C(=O)CCC2C2c3ccccc3OC12 (stereo not given) | > 100 | > 100 | > 100 | > 100 | > 100 | > 100 | > 100 | > 100 | > 100 | > 100 | > 100 | > 100 | > 100 | > 100 | > 100 | > 100 | > 100 | > 100 |
| [N-]=[N+]=Nc1c(Cl)c(Cl)nc2ccccc12 | > 100 | > 100 | > 100 | > 100 | > 100 | > 100 | > 100 | > 100 | > 100 | > 100 | > 100 | > 100 | > 100 | > 100 | > 100 | > 100 | > 100 | > 100 |
| NNC(=O)CCSc1ccccc1 | > 100 | > 100 | > 100 | > 100 | > 100 | > 100 | > 100 | > 100 | > 100 | > 100 | > 100 | > 100 | > 100 | > 100 | > 100 | > 100 | > 100 | > 100 |
